Measurements from patent publication US20220313698A1, “MODULATORS OF CYSTIC FIBROSIS TRANSMEMBRANE CONDUCTANCE REGULATOR” (Vertex Pharmaceuticals Incorporated, priority 2019, published 2022).
pEC50: −log10 of the molar value.

Key:
[1] = target: T1, CFTR-mediated chloride transport (Homo sapiens, UniProt P13569); test: Corrector Assay B - membrane potential dye assay (enteroid cells); settings: for Corrector Assay B % activity: % of chloride transport of triple combination control (3 μM Compound A + 3 μM tezacaftor + 300 nM ivacaftor); for pEC50: read-out: Corrector Assay B EC50, human intestinal enteroid cells, 18-24 h incubation, acute 10 μM forskolin + 300 nM ivacaftor;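 for all read-outs here: methyl oxonol membrane potential fluorescence followed over 15 min after switching to chloride-free buffer with forskolin, 100 µM IBMX and ivacaftor, in presence of CaCC blockers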
Procedure: Base medium (ADF+++) consisted of Advanced DMEM/Ham's F12, 2 mM Glutamax, 10 mM HEPES, 1 μg/ml penicillin/streptomycin.
Intestinal enteroid maintenance medium (IEMM) consisted of ADF+++, 1×B27 supplement, 1×N2 supplement, 1.25 mM N-acetyl cysteine, 10 mM Nicotinamide, 50 ng/mL hEGF, 10 nM Gastrin, 1 μg/mL hR-spondin-1, 100 ng/mL hNoggin, TGF-b type 1 inhibitor A-83-01, 100 μg/mL Primocin, 10 μM P38 MAPK inhibitor SB202190.
Bath 1 Buffer consisted of 1 mM MgCl2, 160 mM NaCl, 4.5 mM KCl, 10 mM HEPES, 10 mM Glucose, 2 mM CaCl2).
Chloride Free Buffer consisted of 1 mM Magnesium Gluconate, 2 mM Calcium Gluconate, 4.5 mM Potassium Gluconate, 160 mM Sodium Gluconate, 10 mM HEPES, 10 mM Glucose.
Bath 1 Dye Solution consisted of Bath 1 Buffer, 0.04% Pluronic F127, 20 μM Methyl Oxonol, 30 μM CaCCinh-A01, 30 μM Chicago Sky Blue.
Chloride Free Dye Solution consisted of Chloride Free Buffer, 0.04% Pluronic F127, 20 μM Methyl Oxonol, 30 μM CaCCinh-A01, 30 μM Chicago Sky Blue.
Chloride Free Dye Stimulation Solution consisted of Chloride Free Dye Solution, 10 μM forskolin, 100 μM IBMX, and 300 nM Ivacaftor.
Cells were recovered in cell recovery solution, collected by centrifugation at 650 rpm for 5 min at 4° C., resuspended in TryPLE and incubated for 5 min at 37° C. Cells were then collected by centrifugation at 650 rpm for 5 min at 4° C. and resuspended in IEMM containing 10 μM ROCK inhibitor (RI). The cell suspension was passed through a 40 μm cell strainer and resuspended at 1×10^6 cells/mL in IEMM containing 10 μM RI. Cells were seeded at 5000 cells/well into multi-well plates and incubated for overnight at 37° C., 95% humidity and 5% CO2 prior to assay.
Briefly, cells were washed 5 times in Bath 1 Buffer. Bath 1 Dye Solution was added and the cells were incubated for 25 min at room temperature. Following dye incubation, cells were washed 3 times in Chloride Free Dye Solution. Chloride transport was initiated by addition of Chloride Free Dye Stimulation Solution and the fluorescence signal was read for 15 min. The CFTR-mediated chloride transport for each condition was determined from the AUC of the fluorescence response to acute forskolin and 300 nM N-[2,4-bis(1,1-dimethylethyl)-5-hydroxyphenyl]-1,4-dihydro-4-oxoquinoline-3-carboxamide stimulation. Chloride transport was then expressed as a percentage of the chloride transport following treatment with 3 μM Compound A, 3 μM (R)-1-(2,2-difluorobenzo[d][1,3]dioxol-5-yl)-N-(1-(2,3-dihydroxypropyl)-6-fluoro-2-(1-hydroxy-2-methylpropan-2-yl)-1H-indol-5-yl)cyclopropanecarboxamide and 300 nM acute N-[2,4-bis(1,1-dimethylethyl)-5-hydroxyphenyl]-1,4-dihydro-4-oxoquinoline-3-carboxamide triple combination control (% Activity).

[2] = target: T1, CFTR-mediated chloride transport; test: Corrector Assay A - membrane potential dye assay (enteroid cells); settings: for Corrector Assay A % activity: % of chloride transport of triple combination control (1 μM (14S)-dispiro macrocycle + 3 μM tezacaftor + 300 nM ivacaftor); for pEC50: read-out: Corrector Assay A EC50, human intestinal enteroid cells, 18-24 h incubation, acute 10 μM forskolin + 300 nM ivacaftor

SMILES	Corrector Assay B % activity [1]	pEC50 [1]	Corrector Assay A % activity [2]	pEC50 [2]
CC1(C)C[C@@H]2CCC(c3ccccc3)Nc3cccc(n3)S(=O)(=O)NC(=O)c3cccnc3N1C2 (single isomer, unassigned) [Compound 288]	+++ (+++ is >60%)	5.52 to 6.00	–	–
CC1(C)C[C@@H]2CCC(c3ccccc3)Nc3cccc(n3)S(=O)(=O)NC(=O)c3cccnc3N1C2 (single isomer, unassigned) [Compound 289]	+++ (+++ is >60%)	> 6.00	–	–
CC(C)(C)c1ccc2c(n1)N1C[C@@H](CCC(c3ccc(C(=O)O)cc3)Nc3cccc(n3)S(=O)(=O)NC2=O)CC1(C)C (single isomer, unassigned) [Compound 290]	++ (++ is 30-60%)	5.52 to 6.00	–	–
CC(C)(C)c1ccc2c(n1)N1C[C@@H](CCC(c3ccc(C(=O)O)cc3)Nc3cccc(n3)S(=O)(=O)NC2=O)CC1(C)C (single isomer, unassigned) [Compound 291]	++ (++ is 30-60%)	5.52 to 6.00	–	–
CC(C)(C)c1ccc2c(n1)N1C[C@@H](CCC(c3cncnc3)Nc3cccc(n3)S(=O)(=O)NC2=O)CC1(C)C (single isomer, unassigned) [Compound 298]	+++ (+++ is >60%)	> 6.00	–	–
CC(C)C1CC[C@@H]2CN(c3nc(-n4ccc(OCCC5(C(F)(F)F)CC5)n4)ccc3C(=O)NS(=O)(=O)c3cccc(n3)N1)C(C)(C)C2 (single isomer, unassigned) [Compound 358]	+++ (+++ is >60%)	> 6.00	–	–
CCCC1(C)CC2CCCNc3cccc(n3)S(=O)(=O)NC(=O)c3ccc(-n4ccc(OCCC5(C(F)(F)F)CC5)n4)nc3N1C2 (single isomer, unassigned) [Compound 365, 12-methyl-12-propyl-8-(3-{2-[1-(trifluoromethyl)cyclopropyl]ethoxy}-1H-pyrazol-1-yl)-2λ^6-thia-3,9,11,18,23-pentaazatetracyclo[17.3.1.111,14.05,10]tetracosa-1(22),5,7,9,19(23),20-hexaene-2,2,4-trione]	+ (+ is <30%)	–	–	–
CCCC1(C)CC2CCCNc3cccc(n3)S(=O)(=O)NC(=O)c3ccc(-n4ccc(OCCC5(C(F)(F)F)CC5)n4)nc3N1C2 (single isomer, unassigned) [Compound 366, 12-methyl-12-propyl-8-(3-{2-[1-(trifluoromethyl)cyclopropyl]ethoxy}-1H-pyrazol-1-yl)-2λ^6-thia-3,9,11,18,23-pentaazatetracyclo[17.3.1.111,14.05,10]tetracosa-1(22),5,7,9,19(23),20-hexaene-2,2,4-trione]	+ (+ is <30%)	–	–	–
CCCC1(C)CC2CCCNc3cccc(n3)S(=O)(=O)NC(=O)c3ccc(-n4ccc(OCCC5(C(F)(F)F)CC5)n4)nc3N1C2 (single isomer, unassigned) [Compound 368, 12-methyl-12-propyl-8-(3-{2-[1-(trifluoromethyl)cyclopropyl]ethoxy}-1H-pyrazol-1-yl)-2λ^6-thia-3,9,11,18,23-pentaazatetracyclo[17.3.1.111,14.05,10]tetracosa-1(22),5,7,9,19(23),20-hexaene-2,2,4-trione]	+++ (+++ is >60%)	> 6.00	–	–
CC1(C)C[C@@H]2CCC(c3ccc(C(=O)O)cc3)Nc3cccc(n3)S(=O)(=O)NC(=O)c3ccc(-n4ccc(OCCC5(C(F)(F)F)CC5)n4)nc3N1C2 (single isomer, unassigned) [Compound 370]	+++ (+++ is >60%)	5.52 to 6.00	–	–
CC1(C)C[C@@H]2CCC(c3ccc(C(=O)O)cc3)Nc3cccc(n3)S(=O)(=O)NC(=O)c3ccc(-n4ccc(OCCC5(C(F)(F)F)CC5)n4)nc3N1C2 (single isomer, unassigned) [Compound 371]	+++ (+++ is >60%)	> 6.00	–	–
CC1(C)C[C@@H]2CCC(c3cncnc3)Nc3cccc(n3)S(=O)(=O)NC(=O)c3ccc(-n4ccc(OCCC5(C(F)(F)F)CC5)n4)nc3N1C2 (single isomer, unassigned) [Compound 374]	+++ (+++ is >60%)	> 6.00	–	–
CC1(C)C[C@@H]2CCC(c3cncnc3)Nc3cccc(n3)S(=O)(=O)NC(=O)c3ccc(-n4ccc(OCCC5(C(F)(F)F)CC5)n4)nc3N1C2 (single isomer, unassigned) [Compound 375]	+++ (+++ is >60%)	> 6.00	–	–
CC1(C)C[C@@H]2CCCN(C[C@@H](O)CO)c3cccc(n3)S(=O)(=O)NC(=O)c3ccc(-n4ccc(OCCC5(C(F)(F)F)CC5)n4)nc3N1C2 (single isomer, unassigned) [Compound 379]	+++ (+++ is >60%)	> 6.00	–	–
CC1(C)C[C@@H]2CCCN(C[C@H](O)CO)c3cccc(n3)S(=O)(=O)NC(=O)c3ccc(-n4ccc(OCCC5(C(F)(F)F)CC5)n4)nc3N1C2 (single isomer, unassigned) [Compound 381]	+++ (+++ is >60%)	> 6.00	–	–
CC1(C)CC2CN1c1nc(-n3ccc(OCCC4(C(F)(F)F)CC4)n3)ccc1C(=O)NS(=O)(=O)c1cccc(n1)NCCC2c1ccccc1 (single isomer, unassigned) [Compound 386, 12,12-Dimethyl-15-phenyl-8-(3-{2-[1-(trifluoromethyl)cyclopropyl]ethoxy}-1H-pyrazol-1-yl)-2λ^6-thia-3,9,11,18,23-pentaazatetracyclo[17.3.1.111,14.05,10]tetracosa-1(22),5,7,9,19(23),20-hexaene-2,2,4-trione]	++ (++ is 30-60%)	> 6.00	–	–
CC1(C)CC2CC(c3ccccc3)CNc3cccc(n3)S(=O)(=O)NC(=O)c3ccc(-n4ccc(OCCC5(C(F)(F)F)CC5)n4)nc3N1C2 (single isomer, unassigned) [Compound 390, 12,12-dimethyl-16-phenyl-8-(3-{2-[1-(trifluoromethyl)cyclopropyl]ethoxy}-1H-pyrazol-1-yl)-2λ^6-thia-3,9,11,18,23-pentaazatetracyclo[17.3.1.111,14.05,10]tetracosa-1(22),5,7,9,19(23),20-hexaene-2,2,4-trione]	+++ (+++ is >60%)	> 6.00	–	–
CC1(C)CC2CC(c3ccccc3)CNc3cccc(n3)S(=O)(=O)NC(=O)c3ccc(-n4ccc(OCCC5(C(F)(F)F)CC5)n4)nc3N1C2 (single isomer, unassigned) [Compound 392, 12,12-dimethyl-16-phenyl-8-(3-{2-[1-(trifluoromethyl)cyclopropyl]ethoxy}-1H-pyrazol-1-yl)-2λ^6-thia-3,9,11,18,23-pentaazatetracyclo[17.3.1.111,14.05,10]tetracosa-1(22),5,7,9,19(23),20-hexaene-2,2,4-trione]	++ (++ is 30-60%)	> 6.00	–	–
CC1(C)C[C@@H]2CC[C@H](c3ccccn3)Nc3cccc(n3)S(=O)(=O)NC(=O)c3ccc(C4CC4)nc3N1C2 [Compound 349]	–	–	+++ (+++ is >60%)	> 6.00
CC1(C)C[C@@H]2CCC(c3ccccn3)Nc3cccc(n3)S(=O)(=O)NC(=O)c3ccc(-n4ccc(OCCC5C6(CC6)C56CC6)n4)nc3N1C2 (stereo partly drawn) [Compound 355, (14S)-8-[3-(2-{dispiro[2.0.2.1]heptan-7-yl}ethoxy)-1H-pyrazol-1-yl]-12,12-dimethyl-17-(pyridin-2-yl)-2λ^6-thia-3,9,11,18,23-pentaazatetracyclo[17.3.1.111,14.05,10]tetracosa-1(22),5,7,9,19(23),20-hexaene-2,2,4-trione]	–	–	+++ (+++ is >60%)	> 6.00
CC1(C)CC2CCC(c3ccccn3)Nc3cccc(n3)S(=O)(=O)NC(=O)c3ccc(-n4ccc(OCCC5C6(CC6)C56CC6)n4)nc3N1C2 [Compound 356, (14S)-8-13-(2-{dispiro[2.0.2.11heptan-7-yl}ethoxy)-1H-pyrazol-1-yl]-12,12-dimethyl-17-(pyridin-2-yl)-2λ^6-thia-3,9,11,18,23-pentaazatetracyclo[17.3.1.111,14.05,10]tetracosa-1(22),5,7,9,19(23),20-hexaene-2,2,4-trione]	–	–	+++ (+++ is >60%)	> 6.00
CC1(C)C[C@@H]2CCCN(CC3COC3)c3cccc(n3)S(=O)(=O)NC(=O)c3ccc(-n4ccc(OCCC5(C(F)(F)F)CC5)n4)nc3N1C2 [Compound 359]	+++ (+++ is >60%)	> 6.00	–	–
CC1(C)C[C@@H]2CCCN(CCCCCC#N)c3cccc(n3)S(=O)(=O)NC(=O)c3ccc(-n4ccc(OCCC5(C(F)(F)F)CC5)n4)nc3N1C2 [Compound 369]	++ (++ is 30-60%)	> 6.00	–	–
Cn1cnnc1CN1CCC[C@@H]2CN(c3nc(-n4ccc(OCCC5(C(F)(F)F)CC5)n4)ccc3C(=O)NS(=O)(=O)c3cccc1n3)C(C)(C)C2 [Compound 373]	++ (++ is 30-60%)	> 6.00	–	–
CN(C)C(=O)CN1CCC[C@@H]2CN(c3nc(-n4ccc(OCCC5(C(F)(F)F)CC5)n4)ccc3C(=O)NS(=O)(=O)c3cccc1n3)C(C)(C)C2 [Compound 376]	++ (++ is 30-60%)	> 6.00	–	–
CC1(C)C[C@@H]2CCCN(CCC#N)c3cccc(n3)S(=O)(=O)NC(=O)c3ccc(-n4ccc(OCCC5(C(F)(F)F)CC5)n4)nc3N1C2 [Compound 377]	+++ (+++ is >60%)	> 6.00	–	–
CC1(C)C[C@@H]2CCCN(CCC(N)=O)c3cccc(n3)S(=O)(=O)NC(=O)c3ccc(-n4ccc(OCCC5(C(F)(F)F)CC5)n4)nc3N1C2 [Compound 378, 3-[(14S)-12,12-Dimethyl-2,2,4-trioxo-8-(3-{2-[1-(trifluoromethyl)cyclopropyl]ethoxy}-1H-pyrazol-1-yl)-2λ^6-thia-3,9,11,18,23-pentaazatetracyclo[17.3.1.111,14.05,10]tetracosa-1(23),5(10),6,8,19,21-hexaen-18-yl]propanamide]	+++ (+++ is >60%)	> 6.00	–	–
